ChEMBL document CHEMBL1128155, “Synthesis and structure-activity relationships of 2-(R) and (S) pyrrolidine-modified analogs of the cholinergic channel activator, ABT-418” (Bioorg Med Chem Lett, 1995)
Values joined by “and” are separate entries in the source; they are usually repeats but may differ in a detail not shown here. Equal entries are not always repeated.

Assay: Displacement of [3H](-)-cytisine from rat brain nicotinic acetylcholine receptors (nAChR)

Compound | Ki
Cc1cc([C@@H]2C[C@@H](CO)CN2C)on1 | 6650 nM
Cc1cc([C@@H]2C[C@H](CF)CN2C)on1 | 1680 nM
Cc1cc([C@@H]2C[C@@H](C)CN2C)on1 | 19 nM
Cc1cc([C@H]2C[C@H](C)CN2C)on1 | 946 nM
Cc1cc([C@H]2C[C@@H](CO)CN2C)on1 | 10900 nM
Cc1cc([C@H]2C[C@H](CO)CN2C)on1 | 6040 nM
Cc1cc([C@H]2CCCN2C)on1 | 7.4 nM
Cc1cc([C@H]2CC[C@H](C)N2C)on1 | 71 nM and 166 nM
Cc1cc([C@@H]2C[C@@H](CF)CN2C)on1 | 155 nM
Cc1cc([C@H]2C[C@H](CF)CN2C)on1 | 16900 nM
Cc1cc([C@@H]2C[C@H](CO)CN2C)on1 (single isomer, unassigned) | 8140 nM
Cc1cc([C@@H]2CCCN2C)on1 [ABT-418] | 3 nM
